Earlier results on one compound are cited in patent US20050053658A1, “Extended release systems for macrolide antibiotics” (priority 2003, published 2005).

Turning to `CC[C@H]1OC(=O)[C@H](C)[C@@H](O[C@H]2C[C@@](C)(OC)[C@@H](O)[C@H](C)O2)[C@H](C)[C@@H](O[C@@H]2O[C@H](C)C[C@H](N(C)C)[C@H]2O)[C@](C)(OC)C[C@@H](C)C(=O)[C@H](C)[C@@H](O)[C@]1(C)O` [Clarithromycin], the water solubility entry is “poorly water soluble”.
